Usually IC50 stands for the concentration at which inhibition is half-maximal. By MIC50 is commonly meant the lowest concentration that inhibits either 50% of growth or 50% of the strains tested, depending on the study.

The text below walks through data of ChEMBL document CHEMBL4828727, “Antibacterial and antitumoral properties of 1,2,3-triazolo fused triterpenes and their mechanism of inhibiting the proliferation of HL-60 cells” (Eur J Med Chem, 2021).

For one test, the system named is MV4-11. The test is described as follows: cells. The class given is functional, cell-based. To be noted: Homo sapiens, MV4-11, 72 h.
Test [1] can be described thus: Antiproliferative activity against human HAP1 cells assessed as inhibition of cell viability measured after 72 hrs by colorimetric MTS viability assay. The class given is functional, cell-based. The note with it: HAP1, 72 h.
In the next test the test system is NCI-H460. Description: cells. Format: functional, cell-based. To be noted: Homo sapiens, NCI-H460, 72 h.
In a further test the test system is K562. The test is described as follows: cells. The note with it: Homo sapiens, K562, 72 h. Format: functional, cell-based.
A further test deals with Z-138. The test is described as follows: cells. The class given is functional, cell-based. The note with it: Homo sapiens, Z-138, 72 h.
A further test has as its system Listeria innocua. The test is described as follows: Antibacterial activity against Listeria innocua LMG11387 assessed as growth inhibition after 20 hrs by broth microdilution method. Format: functional. In general terms: Broth dilution looks for growth in wells or tubes with falling amounts of substance.
The test system of the next test is HCT-116. The test is described as follows: Antiproliferative activity against human HCT-116 cells assessed as inhibition of cell viability measured after 72 hrs by colorimetric MTS viability assay. The class given is functional, cell-based. To be noted: HCT-116, 72 h. For orientation: Tetrazolium dyes change colour on reduction, which living cells bring about.

The next test relates to LN-229. Description: Antiproliferative activity against human LN-229 cells assessed as inhibition of cell viability measured after 72 hrs by colorimetric MTS viability assay. To be noted: LN-229, 72 h. Format: functional, cell-based.
The next test deals with Staphylococcus aureus. The test is described as follows: Antibacterial activity against Staphylococcus aureus ATCC65385 assessed as growth inhibition after 20 hrs by broth microdilution method. Format: functional.
The next test has as its system Jurkat. The test is described as follows: cells. The class given is functional, cell-based. To be noted: Homo sapiens, 72 h.
In a further test the test system is Rec1. Description: cells. The class given is functional, cell-based. To be noted: Homo sapiens, Rec1, 72 h.
Test [2] relates to Salmonella enterica subsp. enterica. The test is described as follows: Antibacterial activity against Salmonella enterica subsp.enterica ATCC13076 assessed as growth inhibition after 20 hrs by broth microdilution method. Format: functional.
A further test has as its system CAPAN-1. The test is described as follows: cells. Format: functional, cell-based. To be noted: Homo sapiens, CAPAN-1, 72 h.
Another test deals with Escherichia coli. The test is described as follows: Antibacterial activity against Escherichia coli ATCC47076 assessed as growth inhibition after 20 hrs by broth microdilution method. The class given is functional.
Test [3] in a line: Antiproliferative activity against human DND41 cells assessed as inhibition of cell viability measured after 72 hrs by real-time IncuCyte proliferation analysis. Format: functional, cell-based. The note with it: DND41, 72 h.
A further test deals with HL-60. The test is described as follows: cells. The class given is functional, cell-based. The note with it: Homo sapiens, HL-60, 72 h.

Converted amounts (≈) assume the structure as drawn. The source made the active and inactive calls. The rule behind the calls is not given here.

Description for CAPAN-1: Antiproliferative activity against human CAPAN-1 cells assessed as inhibition of cell viability measured after 72 hrs by colorimetric MTS viability assay
Description for HL-60: Antiproliferative activity against human HL-60 cells assessed as inhibition of cell viability measured after 72 hrs by real-time IncuCyte proliferation analysis
Description for Jurkat: Cytotoxicity against human Jurkat cells assessed as inhibition of cell viability measured after 72 hrs by real-time IncuCyte proliferation analysis
Description for K562: Antiproliferative activity against human K562 cells assessed as inhibition of cell viability measured after 72 hrs by real-time IncuCyte proliferation analysis
Description for MV4-11: Cytotoxicity against human MV4-11cells assessed as inhibition of cell viability measured after 72 hrs by real-time IncuCyte proliferation analysis
Description for NCI-H460: Antiproliferative activity against human NCI-H460 cells assessed as inhibition of cell viability measured after 72 hrs by colorimetric MTS viability assay
Description for Rec1: Cytotoxicity against human REC1 cells assessed as inhibition of cell viability measured after 72 hrs by real-time IncuCyte proliferation analysis
Description for Z-138: Antiproliferative activity against human Z138 cells assessed as inhibition of cell viability measured after 72 hrs by real-time IncuCyte proliferation analysis

`C[C@H]1[C@H](C)CC[C@]2(C(=O)O)CC[C@]3(C)C(=CC[C@@H]4[C@@]5(C)Cc6nnn(Cc7cccc8[nH]ccc78)c6C(C)(C)[C@@H]5CC[C@]43C)[C@H]12`: the concentration for half-maximal inhibition (IC50) is 14.1 µM in the test on MV4-11; 8.8 µM in test [1]; 9.2 µM in the test on NCI-H460; over 100 µM in the test with K562; 10.1 µM in the test on Z-138; 15.6 µM with HCT-116. For the same compound, the IC50 worked out at 63.5 µM in the test with LN-229; 4.1 µM with Jurkat; 2.8 µM in the test with Rec1; 3.6 µM with CAPAN-1; 10.1 µM in test [3]; 2.7 µM with HL-60. In addition, the results for the MIC50 with Listeria innocua, with Staphylococcus aureus and with Escherichia coli were 51.3 mg/L (≈ 84.2 µM), 23.1 mg/L (≈ 38 µM) and 409 mg/L (≈ 672 µM), respectively. In test [2], the MIC50 entry is “inactive”.
Take `CC1(C)CC[C@]2(C(=O)O)CC[C@]3(C)C(=CC[C@@H]4[C@@]5(C)Cc6nnn(CCc7c[nH]c8ccccc78)c6C(C)(C)[C@@H]5CC[C@]43C)[C@@H]2C1`: the IC50 was 15.8 µM in the test with MV4-11; over 7.9 µM in [1]; 7.6 µM with NCI-H460; 52.1 µM in the test with K562; 11.6 µM with Z-138; 11.1 µM in the test on HCT-116. Further, the IC50 was 55.1 µM in the test with LN-229; 4.1 µM in the test on Jurkat; 2.1 µM in the test with Rec1; 9.6 µM in the test with CAPAN-1; 9.9 µM in test [3]; 1.5 µM with HL-60. Besides, the MIC50 is 255 mg/L (≈ 409 µM) with Listeria innocua, 274 mg/L (≈ 439 µM) in the test with Staphylococcus aureus and 387 mg/L (≈ 622 µM) with Escherichia coli. Further, in test [2], the MIC50 result is “inactive”.
Take `CC1(C)CC[C@]2(C(=O)O)CC[C@]3(C)C(=CC[C@@H]4[C@@]5(C)Cc6nnn(Cc7ccc8[nH]ccc8c7)c6C(C)(C)[C@@H]5CC[C@]43C)[C@@H]2C1`: the IC50 is 12.8 µM in the test with MV4-11; 3.3 µM in [1]; 8.3 µM in the test with NCI-H460; 86.1 µM in the test with K562; 10.3 µM in the test on Z-138; 12 µM in the test on HCT-116. The IC50 was 37.7 µM in the test with LN-229; 3.7 µM with Jurkat; 2 µM with Rec1; 4.1 µM in the test on CAPAN-1; 12.1 µM in [3]; 7 µM with HL-60. For the same compound, the MIC50 in the test on Listeria innocua worked out at 193 mg/L (≈ 317 µM); with Staphylococcus aureus it was 95.5 mg/L (≈ 157 µM); in [2], 33 mg/L (≈ 54.1 µM); in the test on Escherichia coli, 41.6 mg/L (≈ 68.3 µM).
With `CC1(C)CC[C@]2(C(=O)O)CC[C@]3(C)C(=CC[C@@H]4[C@@]5(C)Cc6nnn(Cc7cccc8[nH]ccc78)c6C(C)(C)[C@@H]5CC[C@]43C)[C@@H]2C1`, the IC50 in the test on MV4-11 was 22.1 µM; in [1], 9.7 µM; with NCI-H460, 10.6 µM; in the test with K562, 68.2 µM; with Z-138, 9.9 µM; in the test on HCT-116, 12.6 µM. In addition, the IC50 in the test with LN-229 was found to be 47.2 µM; in the test with Jurkat, 5.3 µM; in the test with Rec1, 2.6 µM; in the test on CAPAN-1 it was 6.7 µM; in [3] it was 11 µM; in the test on HL-60 it was 9.7 µM. The MIC50 with Listeria innocua was found to be 237 mg/L (≈ 390 µM); with Staphylococcus aureus it was 180 mg/L (≈ 296 µM); in [2], 88.7 mg/L (≈ 146 µM); with Escherichia coli, 95.8 mg/L (≈ 157 µM).
`CC1(C)CC[C@]2(C(=O)O)CC[C@]3(C)C(=CC[C@@H]4[C@@]5(C)Cc6nnn(Cc7ccc8cc[nH]c8c7)c6C(C)(C)[C@@H]5CC[C@]43C)[C@@H]2C1`: the IC50 in the test with MV4-11 was 21.5 µM; in test [1], 9.2 µM; in the test with NCI-H460 it was over 100 µM; with K562, 69.2 µM; in the test on Z-138, 67.4 µM; with HCT-116, 11 µM. The IC50 was 44.4 µM in the test with LN-229; 2.2 µM in the test with Jurkat; 1.8 µM in the test on Rec1; 9.4 µM in the test with CAPAN-1; over 100 µM in test [3]; 3.3 µM in the test with HL-60. For the same compound, the MIC50 was 90 mg/L (≈ 148 µM) in the test on Listeria innocua, 199 mg/L (≈ 327 µM) with Staphylococcus aureus, 29 mg/L (≈ 47.6 µM) in [2] and 40.8 mg/L (≈ 67.1 µM) with Escherichia coli.
For `C[C@H]1[C@H](C)CC[C@]2(C(=O)O)CC[C@]3(C)C(=CC[C@@H]4[C@@]5(C)Cc6nnn(Cc7ccc8[nH]ccc8c7)c6C(C)(C)[C@@H]5CC[C@]43C)[C@H]12`, the IC50 came to 12.9 µM in the test on MV4-11; 4.3 µM in test [1]; 8.6 µM in the test on NCI-H460; 49.3 µM with K562; 9.4 µM in the test on Z-138; 11.5 µM in the test on HCT-116. Moreover, the IC50 amounted to 33.1 µM in the test with LN-229; 3.2 µM in the test on Jurkat; 1.7 µM with Rec1; 4.5 µM in the test with CAPAN-1; 11.5 µM in test [3]; 1.5 µM with HL-60. In addition, the MIC50 with Listeria innocua turned out to be 153 mg/L (≈ 252 µM); with Staphylococcus aureus, 37 mg/L (≈ 60.7 µM). The MIC50 result (in test [2]; with Escherichia coli) was “inactive” throughout.
Regarding `C[C@H]1[C@H](C)CC[C@]2(C(=O)O)CC[C@]3(C)C(=CC[C@@H]4[C@@]5(C)Cc6nnn(CCc7c[nH]c8ccccc78)c6C(C)(C)[C@@H]5CC[C@]43C)[C@H]12`, the IC50 was 9.9 µM in the test on MV4-11; 6.3 µM in [1]; 8.8 µM in the test on NCI-H460; 65.9 µM with K562; 12.2 µM with Z-138; 10.8 µM in the test on HCT-116. In addition, the IC50 was determined as 35.1 µM in the test on LN-229; 3.8 µM in the test with Jurkat; 2.5 µM in the test with Rec1; 4.6 µM in the test with CAPAN-1; 9 µM in [3]; 5.5 µM in the test on HL-60. In addition, the MIC50 with Listeria innocua worked out at 118 mg/L (≈ 189 µM); with Staphylococcus aureus it was 132 mg/L (≈ 212 µM). The MIC50 result (in test [2]; with Escherichia coli) was “inactive” in each case.
